Biological target: T1, Human Polymorphonuclear Leukocyte Elastase (Homo sapiens, UniProt P08246)
T1 construct: Crude extract of human polymorphonuclear leukocytes (PMN) containing elastase activity; from tissue; host or cells: human polymorphonuclear leukocytes (crude extract)
T1 sequence (P08246 30-267): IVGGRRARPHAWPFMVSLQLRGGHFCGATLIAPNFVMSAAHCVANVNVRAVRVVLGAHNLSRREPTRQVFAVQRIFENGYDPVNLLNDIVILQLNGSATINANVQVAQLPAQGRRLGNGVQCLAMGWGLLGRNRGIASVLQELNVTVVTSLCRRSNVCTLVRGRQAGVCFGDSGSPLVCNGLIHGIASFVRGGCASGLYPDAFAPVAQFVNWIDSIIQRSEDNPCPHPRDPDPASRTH
Assay: Enzyme assay for inhibition of human polymorphonuclear leukocyte elastase via hydrolysis of Boc-AAPAN or Boc-AAPVN
Format: biochemical
Conditions: pH 7.5, second order rate constant for inactivation of the enzyme, expressed to the nearest thousand, read-out: Kobs/[I]
Description: Enzyme Assays for the Inhibition of Human Polymorphonuclear Leukocyte Elastase Via Hydrolysis of N-t-Boc-alanyl-alanyl-prolylalanine-p-nitroanilide (Boc-AAPAN) or N-t-Boc-alanyl-prolylvaline-p-nitro-anilide (Boc-AAPVN) Reagent:
0.05M TES (N-tris[hydroxymethyl]methyl-2-mino-ethanesulfonic acid) Buffer, pH 7.5.
0.2 mM Boc-AAPAN or Boc-AAPVN.
To prepare substrate, the solid was first dissolved in 10.0 ml DMSO. Buffer at pH 7.5 was then added to a final volume of 100 ml.
Crude extract of human polymorphonuclear leukocytes (PMN) containing elastase activity.
Inhibitors (azetidinones) to be tested dissolved in DMSO just before use.
To 1.0 ml of 0.2 mM Boc-AAPAN in a cuvette, 0.01-0.1 ml of DMSO with or without inhibitor was added. After mixing, a measurement was taken at 410 mµ to detect any spontaneous hydrolysis due to presence of test compound. 0.05 Milliliters of PMN extract was then added and the ΔOD/min at 410 mµ was measured and recorded. Beckman model 35 spectrophotometer was used.
Results were expressed to the nearest thousand ^kobs/I which is the second order rate constant in per mole per second for inactivation of the enzyme.
The elastase activity in the crude PMN extract may vary from one preparation to another. A control of each new batch is run, and the volume added in the assay procedure is adjusted according to activity.

Compound	kinact/KI
CCC[C@@H](NC(=O)N1C(=O)C(CC)(CC)[C@@H]1Oc1ccc(C(=O)NCCN2CCN(C(=O)OCc3ccccc3)CC2)cc1)c1ccc(C)cc1 [Compound 117]	6.23e+06 M⁻¹ s⁻¹
CCC[C@@H](NC(=O)N1C(=O)C(CC)(CC)[C@@H]1Oc1ccc(C(=O)OCC(=O)NC(CO)(CO)CO)cc1)c1ccc(C)cc1 [Compound 5]	4.45e+06 M⁻¹ s⁻¹
CCCC(NC(=O)N1C(=O)C(CC)(CC)C1Oc1ccc(C(=O)OCC(=O)N(CCO)CCO)cc1)c1ccc(C)cc1 (stereo not drawn) [Compound 3, 2-(bis(2-hydroxyethyl)amino)-2-oxoethyl(S-(R*,S*))-4-((3,3-diethyl-1-(((1-(4-methyl-phenyl)butyl)amino)carbonyl)-4-oxo-2-azetidinyl)oxy) benzoate]	3.43e+06 M⁻¹ s⁻¹
CCC[C@@H](NC(=O)N1C(=O)C(CC)(CC)[C@@H]1Oc1ccc(C(=O)N(C)CCN2CCNCC2)cc1)c1ccc(C)cc1 [Compound 151]	1.19e+06 M⁻¹ s⁻¹
CCC[C@@H](NC(=O)N1C(=O)C(CC)(CC)[C@@H]1Oc1ccc(C(=O)N(C)CCN(C)C)cc1)c1ccc(CO)cc1 [Compound 288]	854000 M⁻¹ s⁻¹
CCC[C@@H](NC(=O)N1C(=O)C(CC)(CC)[C@@H]1Oc1ccc(C(=O)N(C)CCO)cc1)c1ccc(C)cc1 [Compound 169]	1.46e+06 M⁻¹ s⁻¹
CCC[C@@H](NC(=O)N1C(=O)C(CC)(CC)[C@@H]1Oc1ccc(CC(=O)OCCN(C)Cc2ccccc2)cc1)c1ccc(C)cc1 [Compound 39]	751000 M⁻¹ s⁻¹
CCC[C@@H](NC(=O)N1C(=O)C(CC)(CC)[C@@H]1Oc1ccc(C(=O)NCCN2CCCC2)cc1)c1ccc(C)cc1 [Compound 94]	1.24e+06 M⁻¹ s⁻¹
CCC[C@@H](NC(=O)N1C(=O)C(CC)(CC)[C@@H]1Oc1ccc(C(=O)OCC(=O)N(C)CC(N)=O)cc1)c1ccc(C)cc1 [Compound 4]	4.29e+06 M⁻¹ s⁻¹
CCC[C@@H](NC(=O)N1C(=O)C(CC)(CC)[C@@H]1Oc1ccc(C(=O)N(C)CCN(C)C(=NC#N)Nc2ccccc2)cc1)c1ccc(C)cc1 [Compound 202]	1.76e+06 M⁻¹ s⁻¹
CCCC(NC(=O)N1C(=O)C(CC)(CC)C1Oc1ccc(C(=O)NCC(=O)N2CCCC2C(=O)NCc2ccccc2)cc1)c1ccc(C)cc1 (centres unmarked) [Compound 102]	2.75e+06 M⁻¹ s⁻¹
CCC[C@@H](NC(=O)N1C(=O)C(CC)(CC)[C@@H]1Oc1ccc(C(=O)N(C)C)cc1)c1ccc(C)cc1 [Compound 187]	1.75e+06 M⁻¹ s⁻¹
CCC[C@@H](NC(=O)N1C(=O)C(CC)(CC)[C@@H]1Oc1ccc(C(=O)N(C)CCN(C)C)cc1)c1ccc(OC)cc1 [Compound 290]	1.01e+06 M⁻¹ s⁻¹
CCC[C@@H](NC(=O)N1C(=O)C(CC)(CC)[C@@H]1Oc1ccc(CC(=O)N(C)CCN(C)C)cc1)c1ccc(O)cc1 [Compound 284]	309000 M⁻¹ s⁻¹
CCC[C@@H](NC(=O)N1C(=O)C(CC)(CC)[C@@H]1Oc1ccc(C(=O)N(C)CCN(C)C2=CCCCC2)cc1)c1ccc(C)cc1 [Compound 225]	1.84e+06 M⁻¹ s⁻¹
CCC[C@@H](NC(=O)N1C(=O)C(CC)(CC)[C@@H]1Oc1ccc(CC(=O)N2CCOCC2)cc1)c1ccc(C(=O)N(C)CCN(C)C)cc1 [Compound 283]	393000 M⁻¹ s⁻¹
CCC[C@@H](NC(=O)N1C(=O)C(CC)(CC)[C@@H]1Oc1ccc(C(=O)N2CCN(C)CC2)cc1)c1ccc(OC)cc1 [Compound 298]	1.84e+06 M⁻¹ s⁻¹
CCC[C@@H](NC(=O)N1C(=O)C(CC)(CC)[C@@H]1Oc1ccc(C(=O)N(C)CCN(C)Cc2cccc3ccccc23)cc1)c1ccc(C)cc1 [Compound 158]	1.08e+06 M⁻¹ s⁻¹
CCC[C@@H](NC(=O)N1C(=O)C(CC)(CC)[C@@H]1Oc1ccc(C(=O)N(C)CCN(C)C)cc1)c1ccc2c(c1)OCO2 [Compound 260]	3.32e+06 M⁻¹ s⁻¹

Compound	kinact/KI
CCC[C@@H](NC(=O)N1C(=O)C(CC)(CC)[C@@H]1Oc1ccc(C(=O)N(C)CCN(C)S(C)(=O)=O)cc1)c1ccc(C)cc1 [Compound 107]	2.53e+06 M⁻¹ s⁻¹
CCC[C@@H](NC(=O)N1C(=O)C(CC)(CC)[C@@H]1Oc1ccc(C(=O)N(C)C2CCN(Cc3ccccc3)CC2)cc1)c1ccc(C)cc1 [Compound 208]	1.95e+06 M⁻¹ s⁻¹
CCC[C@@H](NC(=O)N1C(=O)C(CC)(CC)[C@@H]1Oc1ccc(C(=O)N2CCC[C@@H]2CN2CCCC2)cc1)c1ccc(C)cc1 [Compound 154]	1.67e+06 M⁻¹ s⁻¹
CCC[C@@H](NC(=O)N1C(=O)C(CC)(CC)[C@@H]1Oc1ccc(C(=O)OCCN2CCN(C(=O)OCc3ccccc3)CC2)cc1)c1ccc(C)cc1 [Compound 22, Benzyl [S-(R*,S*)]-4-[2-[[4-[[3,3-diethyl-1-[[[1-(4-methylphenyl)butyl]amino]carbonyl]-4-oxo-2-azetidinyl]oxy]benzoyl]oxy]-ethyl]-1-Piperazine-carboxylate]	4.12e+06 M⁻¹ s⁻¹
CCC[C@@H](NC(=O)N1C(=O)C(CC)(CC)[C@@H]1Oc1ccc(CC(=O)NCC(=O)O)cc1)c1ccc(C)cc1 [Compound 47]	876000 M⁻¹ s⁻¹
CCC[C@@H](NC(=O)N1C(=O)C(CC)(CC)[C@@H]1Oc1ccc(C(=O)N(C)CCN2CCC(O)CC2)cc1)c1ccc(C)cc1 [Compound 129]	1.99e+06 M⁻¹ s⁻¹
CCC[C@@H](NC(=O)N1C(=O)C(CC)(CC)[C@@H]1Oc1ccc(C(=O)N2CCCCC2CO)cc1)c1ccc(C)cc1 (some centres unmarked) [Compound 228]	50000 M⁻¹ s⁻¹
CCC[C@@H](NC(=O)N1C(=O)C(CC)(CC)[C@@H]1Oc1ccc(CC(=O)N(C)CCN(C(C)C)C(C)C)cc1)c1ccc(C)cc1 [Compound 58]	1.63e+06 M⁻¹ s⁻¹
CCC[C@@H](NC(=O)N1C(=O)C(CC)(CC)[C@@H]1Oc1ccc(C(=O)N(C)CCCCCCN(C)Cc2ccccc2)cc1)c1ccc(C)cc1 [Compound 168]	2.16e+06 M⁻¹ s⁻¹
CCC[C@@H](NC(=O)N1C(=O)C(CC)(CC)[C@@H]1Oc1ccc(C(=O)N(C)CCCC(=O)NS(=O)(=O)c2ccccc2)cc1)c1ccc(C)cc1 [Compound 165]	1.55e+06 M⁻¹ s⁻¹
CCC[C@@H](NC(=O)N1C(=O)C(CC)(CC)[C@@H]1Oc1ccc(C(=O)N(C)CCN(C)C2CCC3CCC2C3)cc1)c1ccc(C)cc1 (some centres unmarked) [Compound 223]	2.58e+06 M⁻¹ s⁻¹
CCC[C@@H](NC(=O)N1C(=O)C(CC)(CC)[C@@H]1Oc1ccc(C(=O)N(C)c2ccc(C(=O)O)cc2)cc1)c1ccc(C)cc1 [Compound 175]	1.06e+06 M⁻¹ s⁻¹
CCC[C@@H](NC(=O)N1C(=O)C(CC)(CC)[C@@H]1Oc1cc(C)c(C(=O)N(C)CCN(CC)CC)c(C)c1)c1ccc(C)cc1 [Compound 308]	377000 M⁻¹ s⁻¹
CCC[C@@H](NC(=O)N1C(=O)C(CC)(CC)[C@@H]1Oc1ccc(C(=O)Nc2ccc(F)cc2)cc1)c1ccc(C)cc1 [Compound 134]	724000 M⁻¹ s⁻¹
CCC[C@@H](NC(=O)N1C(=O)C(CC)(CC)[C@@H]1Oc1ccc(C(=O)OCC(C)(C)N(C)C)cc1)c1ccc(C)cc1 [Compound 20, 2-dimethylamino-2-methyl-1-propyl [S-(R*,S*)]-4-[[3,3-diethyl-1-[[[1-(4-methyl-phenyl)butyl]amino]carbonyl]-4-oxo-2-azetidinyl]oxy]benzoate]	1.47e+06 M⁻¹ s⁻¹
CCC[C@@H](NC(=O)N1C(=O)C(CC)(CC)[C@@H]1Oc1ccc(C(=O)NCCN2CCS(=O)(=O)CC2)cc1)c1ccc(C)cc1 [Compound 109]	1.28e+06 M⁻¹ s⁻¹
CCC[C@@H](NC(=O)N1C(=O)C(CC)(CC)[C@@H]1Oc1ccc(C(=O)N(C)CCN(C)Cc2ccccc2)cc1)c1ccc(Cl)cc1 [Compound 302]	1.46e+06 M⁻¹ s⁻¹
CCC[C@@H](NC(=O)N1C(=O)C(CC)(CC)[C@@H]1Oc1ccc(C(=O)N(C)CCN2CCOCC2)cc1)c1ccc(C)cc1 [Compound 79]	2.12e+06 M⁻¹ s⁻¹
CCC[C@@H](NC(=O)N1C(=O)C(CC)(CC)[C@@H]1Oc1ccc(C(=O)N(C)CCN(C)Cc2ccccc2)cc1)c1ccc2c(c1)OCO2 [Compound 264]	3.43e+06 M⁻¹ s⁻¹

From EP0595557A1, “New substituted azetidinones as anti-inflammatory and antidegenerative agents” (MERCK & CO. INC., priority 1992, dated 1994)
